Assay results published in patent US9340590B2 (priority 2011, dated 2016).
Like-named read-outs stand apart in the source and are kept apart here. Positions of bridges follow the written chain, without caps; N, C: chain ends. Non-standard residues stand in square brackets, D forms with d. Residues, ends and D or L forms follow the SMILES beside them. *: point of attachment. NMeF = CN[C@@H](Cc1ccccc1)C(=O)O; Pent4ynoyl = C#CCCC(=O)*; Nva = CCC[C@H](N)C(=O)O; Abu = CC[C@H](N)C(=O)O

Assays:
Assay in all cases: cell-based
hNav1.3 = hNav1.3 (Homo sapiens, UniProt Q9NY46); settings: IonWorks Quattro, read-out: IWQ Use Nav1.3
hNav1.7 = hNav1.7 (Homo sapiens, UniProt Q15858); assay type: cell-based
hNav1.5 = hNav1.5 (Homo sapiens, UniProt Q14524); settings: IonWorks Quattro, read-out: IWQ Use Nav1.5
[1] = IonWorks Quattro, use-dependent block, hNav1.7, read-out: IWQ Use Nav1.7

hNav1.7, sequence (Q15858 whole entry, looked up): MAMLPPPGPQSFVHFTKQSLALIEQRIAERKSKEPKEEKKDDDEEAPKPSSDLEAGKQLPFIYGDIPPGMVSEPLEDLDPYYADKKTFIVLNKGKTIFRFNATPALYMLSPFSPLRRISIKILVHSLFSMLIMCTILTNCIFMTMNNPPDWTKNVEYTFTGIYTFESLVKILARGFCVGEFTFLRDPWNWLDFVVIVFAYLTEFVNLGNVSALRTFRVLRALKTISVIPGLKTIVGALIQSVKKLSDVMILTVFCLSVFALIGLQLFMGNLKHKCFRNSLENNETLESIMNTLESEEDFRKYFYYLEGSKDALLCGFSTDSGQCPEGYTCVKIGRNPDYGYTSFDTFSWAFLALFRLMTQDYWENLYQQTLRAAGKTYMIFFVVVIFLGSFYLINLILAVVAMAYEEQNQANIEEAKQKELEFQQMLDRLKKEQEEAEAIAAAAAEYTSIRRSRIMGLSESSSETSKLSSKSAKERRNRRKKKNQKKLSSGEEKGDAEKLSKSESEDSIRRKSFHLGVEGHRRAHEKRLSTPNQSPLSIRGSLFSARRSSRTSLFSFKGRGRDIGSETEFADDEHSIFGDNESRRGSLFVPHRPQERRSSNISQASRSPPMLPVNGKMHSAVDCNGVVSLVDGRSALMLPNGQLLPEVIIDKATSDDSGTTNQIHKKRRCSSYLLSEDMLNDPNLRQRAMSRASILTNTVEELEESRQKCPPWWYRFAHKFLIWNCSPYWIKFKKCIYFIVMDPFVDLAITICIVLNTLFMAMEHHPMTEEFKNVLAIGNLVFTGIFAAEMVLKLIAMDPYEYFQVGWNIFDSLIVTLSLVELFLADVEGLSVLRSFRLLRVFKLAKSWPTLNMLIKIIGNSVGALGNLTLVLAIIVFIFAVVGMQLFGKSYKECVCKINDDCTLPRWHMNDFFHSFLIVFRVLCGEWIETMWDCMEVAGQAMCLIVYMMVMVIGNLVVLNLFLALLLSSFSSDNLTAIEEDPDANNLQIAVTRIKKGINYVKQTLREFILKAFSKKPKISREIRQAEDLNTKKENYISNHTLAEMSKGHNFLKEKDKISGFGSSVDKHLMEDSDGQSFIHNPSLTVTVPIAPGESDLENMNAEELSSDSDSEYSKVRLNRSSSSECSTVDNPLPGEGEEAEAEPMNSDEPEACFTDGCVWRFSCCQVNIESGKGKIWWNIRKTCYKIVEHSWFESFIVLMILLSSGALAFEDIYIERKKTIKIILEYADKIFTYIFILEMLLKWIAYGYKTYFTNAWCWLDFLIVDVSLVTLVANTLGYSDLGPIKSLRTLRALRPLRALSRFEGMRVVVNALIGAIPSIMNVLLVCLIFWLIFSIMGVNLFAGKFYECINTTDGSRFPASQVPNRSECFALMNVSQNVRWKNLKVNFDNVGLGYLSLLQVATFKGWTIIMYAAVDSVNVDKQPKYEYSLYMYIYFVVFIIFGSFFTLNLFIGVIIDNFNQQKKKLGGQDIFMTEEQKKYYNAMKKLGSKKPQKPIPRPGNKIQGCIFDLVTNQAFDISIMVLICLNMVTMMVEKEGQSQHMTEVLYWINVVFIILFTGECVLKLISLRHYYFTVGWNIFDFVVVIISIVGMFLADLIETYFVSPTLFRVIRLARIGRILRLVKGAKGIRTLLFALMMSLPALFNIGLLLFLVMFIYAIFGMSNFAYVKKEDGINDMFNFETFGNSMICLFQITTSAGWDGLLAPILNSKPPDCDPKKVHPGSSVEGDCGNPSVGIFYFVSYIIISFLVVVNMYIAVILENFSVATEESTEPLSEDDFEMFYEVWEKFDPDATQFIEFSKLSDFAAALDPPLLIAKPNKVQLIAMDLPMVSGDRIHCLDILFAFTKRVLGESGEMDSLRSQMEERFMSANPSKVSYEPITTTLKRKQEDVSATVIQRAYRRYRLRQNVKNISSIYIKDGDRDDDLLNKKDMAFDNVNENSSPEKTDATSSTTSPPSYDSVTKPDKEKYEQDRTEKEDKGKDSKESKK
hNav1.5, sequence (Q14524 whole entry, looked up): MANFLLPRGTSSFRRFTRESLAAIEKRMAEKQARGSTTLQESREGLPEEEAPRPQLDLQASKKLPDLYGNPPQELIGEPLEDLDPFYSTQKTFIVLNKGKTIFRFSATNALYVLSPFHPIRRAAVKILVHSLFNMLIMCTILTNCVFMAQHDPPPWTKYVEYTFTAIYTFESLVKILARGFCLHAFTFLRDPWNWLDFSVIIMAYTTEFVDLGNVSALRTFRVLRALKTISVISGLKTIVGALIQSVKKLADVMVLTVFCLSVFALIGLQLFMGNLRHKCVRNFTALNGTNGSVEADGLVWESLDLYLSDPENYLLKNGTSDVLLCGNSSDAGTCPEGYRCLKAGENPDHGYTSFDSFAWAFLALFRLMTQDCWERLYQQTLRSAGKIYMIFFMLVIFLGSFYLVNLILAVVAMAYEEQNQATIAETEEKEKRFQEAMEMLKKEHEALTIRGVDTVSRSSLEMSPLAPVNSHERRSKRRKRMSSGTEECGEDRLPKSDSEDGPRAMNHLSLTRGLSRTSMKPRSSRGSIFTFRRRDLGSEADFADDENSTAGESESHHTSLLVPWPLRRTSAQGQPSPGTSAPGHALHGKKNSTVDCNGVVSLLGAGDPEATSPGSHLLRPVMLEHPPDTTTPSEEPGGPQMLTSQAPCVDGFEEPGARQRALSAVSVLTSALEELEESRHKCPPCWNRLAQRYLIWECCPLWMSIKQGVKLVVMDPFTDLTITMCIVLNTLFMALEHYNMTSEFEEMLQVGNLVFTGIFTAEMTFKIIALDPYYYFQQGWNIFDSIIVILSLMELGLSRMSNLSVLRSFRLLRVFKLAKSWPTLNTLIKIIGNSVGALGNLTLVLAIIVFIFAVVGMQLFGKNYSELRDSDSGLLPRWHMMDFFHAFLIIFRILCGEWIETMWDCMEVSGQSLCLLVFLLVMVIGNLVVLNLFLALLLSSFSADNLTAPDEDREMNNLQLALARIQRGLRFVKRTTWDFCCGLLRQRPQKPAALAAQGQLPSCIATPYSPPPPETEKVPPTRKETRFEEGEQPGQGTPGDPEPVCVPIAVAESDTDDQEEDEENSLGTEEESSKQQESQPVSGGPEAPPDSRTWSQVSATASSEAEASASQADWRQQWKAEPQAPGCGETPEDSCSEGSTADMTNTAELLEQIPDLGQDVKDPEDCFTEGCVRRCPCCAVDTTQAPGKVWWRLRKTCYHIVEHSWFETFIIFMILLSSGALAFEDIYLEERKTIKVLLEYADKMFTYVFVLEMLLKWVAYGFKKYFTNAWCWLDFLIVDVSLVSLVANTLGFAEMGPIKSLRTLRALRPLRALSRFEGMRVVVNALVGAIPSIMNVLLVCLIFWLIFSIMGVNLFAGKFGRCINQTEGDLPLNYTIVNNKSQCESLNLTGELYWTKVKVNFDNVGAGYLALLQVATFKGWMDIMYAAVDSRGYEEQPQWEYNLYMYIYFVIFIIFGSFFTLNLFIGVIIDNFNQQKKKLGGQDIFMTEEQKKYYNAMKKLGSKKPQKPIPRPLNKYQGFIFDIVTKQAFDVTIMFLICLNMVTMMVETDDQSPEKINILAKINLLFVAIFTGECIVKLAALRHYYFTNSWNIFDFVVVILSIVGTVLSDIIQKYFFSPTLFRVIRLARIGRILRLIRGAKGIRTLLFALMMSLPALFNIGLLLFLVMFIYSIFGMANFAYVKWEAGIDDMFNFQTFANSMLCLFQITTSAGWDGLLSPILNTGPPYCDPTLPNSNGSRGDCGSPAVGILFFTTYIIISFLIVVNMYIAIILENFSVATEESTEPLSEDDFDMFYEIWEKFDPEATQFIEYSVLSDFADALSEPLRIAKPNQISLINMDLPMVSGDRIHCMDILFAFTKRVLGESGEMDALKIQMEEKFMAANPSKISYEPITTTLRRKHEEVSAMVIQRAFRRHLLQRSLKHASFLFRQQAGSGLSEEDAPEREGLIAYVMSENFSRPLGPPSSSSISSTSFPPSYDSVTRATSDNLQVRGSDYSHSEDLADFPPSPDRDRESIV

Structure (SMILES) | IC50 (hNav1.3; use-dependent block, hNav1.3) [nM] | IC50 (hNav1.7; [1]) [nM] | IC50 (hNav1.5; use-dependent block, hNav1.5) [nM] | further results
CC[C@H](C)[C@@H]1NC(=O)[C@@H]2CSSC[C@@H]3NC(=O)[C@H](C(C)C)NC(=O)[C@H](CC(C)C)NC(=O)[C@H](CC(N)=O)NC(=O)[C@@H]4CCCN4C(=O)[C@H](CCCNC(=N)N)NC(=O)[C@H](CSSC[C@H](NC(=O)[C@@H](N)CC(=O)O)C(=O)N[C@@H](CC(C)C)C(=O)NCC(=O)N[C@@H](C)C(=O)N[C@@H](CC(C)C)C(=O)N[C@@H](CCCNC(=N)N)C(=O)N[C@@H](CCCCN)C(=O)N2)NC(=O)[C@H](CSSC[C@@H](C(=O)N[C@@H](CCCCN)C(=O)N[C@@H](Cc2ccc(O)cc2)C(=O)N[C@H](C(=O)N[C@@H](Cc2ccccc2)C(=O)O)C(C)C)NC(=O)[C@H](Cc2c[nH]c4ccccc24)NC(=O)[C@H](CCCNC(=N)N)NC(=O)[C@H](Cc2c[nH]cn2)NC(=O)[C@H]([C@@H](C)O)NC(=O)[C@H](CCCNC(=N)N)NC(=O)[C@H](CO)NC3=O)NC(=O)[C@H](CCCCN)NC(=O)[C@H](CC(=O)O)NC(=O)[C@H](CC(=O)O)NC(=O)[C@H](CC(=O)O)NC(=O)[C@@H]2CCCN2C1=O [compound 861] (H-DCLGALRKCIPDDDKCCRPNLVCSRTHRWCKYVF-OH; disulfide 2-17, 9-23, 16-30) | > 5000 | > 5000 | > 5000 | 
CC[C@H](C)[C@@H]1NC(=O)[C@@H]2CSSC[C@@H]3NC(=O)[C@H](C(C)C)NC(=O)[C@H](CC(C)C)NC(=O)[C@H](CC(N)=O)NC(=O)[C@@H]4CCCN4C(=O)[C@H](CCCNC(=N)N)NC(=O)[C@H](CSSC[C@H](NC(=O)[C@@H](N)CC(=O)O)C(=O)N[C@@H](CC(C)C)C(=O)NCC(=O)N[C@@H](Cc4ccccc4)C(=O)N[C@@H](CCSC)C(=O)N[C@@H](CCCNC(=N)N)C(=O)N[C@@H](CCCCN)C(=O)N2)NC(=O)[C@H](CSSC[C@@H](C(=O)N[C@@H](CCCCN)C(=O)N[C@@H](Cc2ccc(O)cc2)C(=O)N[C@H](C(=O)N[C@@H](Cc2ccccc2)C(=O)N[C@@H](Cc2ccc4ccccc4c2)C(N)=O)C(C)C)NC(=O)[C@H](Cc2c[nH]c4ccccc24)NC(=O)[C@H](CCCCN)NC(=O)[C@H](Cc2c[nH]cn2)NC(=O)[C@H]([C@@H](C)O)NC(=O)[C@H](CCCNC(=N)N)NC(=O)[C@H](CO)NC3=O)NC(=O)[C@H](CCCCN)NC(=O)[C@H](CC(=O)O)NC(=O)[C@H](CC(N)=O)NC(=O)[C@H](CC(=O)O)NC(=O)[C@@H]2CCCN2C1=O [compound 131] |  |  |  | IC50 (hNav1.3; use-dependent, […]): 20 nM; IC50 (hNav1.7; IonWorks Quattro, use-dependent, […], read-out: IWQ Use Nav1.7 (μm)): 50 nM; IC50 (hNav1.5; use-dependent, […]): 2550 nM
CC[C@H](C)[C@@H]1NC(=O)[C@@H]2CSSC[C@@H]3NC(=O)[C@H](C(C)C)NC(=O)[C@H](CC(C)C)NC(=O)[C@H](CC(N)=O)NC(=O)[C@@H]4CCCN4C(=O)[C@H](CCCNC(=N)N)NC(=O)[C@H](CSSC[C@H](NC(=O)[C@@H](N)CC(=O)O)C(=O)N[C@@H](CC(C)C)C(=O)NCC(=O)N[C@@H](Cc4ccccc4)C(=O)N[C@@H](CCSC)C(=O)N[C@@H](CCCNC(=N)N)C(=O)N[C@@H](CCCCN)C(=O)N2)NC(=O)[C@H](CSSC[C@@H](C(=O)N[C@@H](CCCCN)C(=O)N[C@@H](Cc2ccc(O)cc2)C(=O)N[C@H](C(=O)N[C@@H](Cc2ccccc2)C(N)=O)C(C)C)NC(=O)[C@H](Cc2c[nH]c4ccccc24)NC(=O)[C@H](CCCCN)NC(=O)[C@H](C)NC(=O)[C@H]([C@@H](C)O)NC(=O)[C@H](CCCNC(=N)N)NC(=O)[C@H](CO)NC3=O)NC(=O)[C@H](CCCCN)NC(=O)[C@H](CC(=O)O)NC(=O)[C@H](CC(N)=O)NC(=O)[C@H](CC(=O)O)NC(=O)[C@@H]2CCCN2C1=O [compound 11] (H-DCLGFMRKCIPDNDKCCRPNLVCSRTAKWCKYVF-NH2; disulfide 2-17, 9-23, 16-30) |  |  |  | IC50 (hNav1.3; Table 23, use, […]): 1150 nM; IC50 (hNav1.7): 950 nM; IC50 (hNav1.5; Table 23, use, […]): 14700 nM
CC[C@H](C)[C@@H]1NC(=O)[C@@H]2CSSC[C@@H]3NC(=O)[C@H](C(C)C)NC(=O)[C@H](CC(C)C)NC(=O)[C@H](CC(N)=O)NC(=O)[C@@H]4CCCN4C(=O)[C@H](CCCNC(=N)N)NC(=O)[C@H](CSSC[C@H](NC(=O)[C@@H](N)CC(=O)O)C(=O)N[C@@H](CC(C)C)C(=O)NCC(=O)N[C@@H](C)C(=O)N[C@@H](CC(C)C)C(=O)N[C@@H](CCCNC(=N)N)C(=O)N[C@@H](CCCCN)C(=O)N2)NC(=O)[C@H](CSSC[C@@H](C(=O)N[C@@H](CCCCN)C(=O)N[C@@H](Cc2ccc(O)cc2)C(=O)N[C@H](C(=O)N[C@@H](Cc2ccccc2)C(=O)O)C(C)C)NC(=O)[C@H](Cc2c[nH]c4ccccc24)NC(=O)[C@H](CCCNC(=N)N)NC(=O)[C@H](Cc2c[nH]cn2)NC(=O)[C@H]([C@@H](C)O)NC(=O)[C@H](CCCNC(=N)N)NC(=O)[C@H](CO)NC3=O)NC(=O)[C@H](CCCCN)NC(=O)[C@H](CC(=O)O)NC(=O)[C@H](CCSC)NC(=O)[C@H](CC(=O)O)NC(=O)[C@@H]2CCCN2C1=O [compound 868] (H-DCLGALRKCIPDMDKCCRPNLVCSRTHRWCKYVF-OH; disulfide 2-17, 9-23, 16-30) | > 5000 | > 5000 | > 5000 | 
CC[C@H](C)[C@@H]1NC(=O)[C@@H]2CSSC[C@@H]3NC(=O)[C@H](C(C)C)NC(=O)[C@H](CC(C)C)NC(=O)[C@H](CC(N)=O)NC(=O)[C@@H]4CCCN4C(=O)[C@H](CCCNC(=N)N)NC(=O)[C@H](CSSC[C@H](NC(=O)[C@@H](N)CC(=O)O)C(=O)N[C@@H](CC(C)C)C(=O)NCC(=O)N[C@@H](C)C(=O)N[C@@H](Cc4ccccc4)C(=O)N[C@@H](CCCNC(=N)N)C(=O)N[C@@H](CCCCN)C(=O)N2)NC(=O)[C@H](CSSC[C@@H](C(=O)N[C@@H](CCCCN)C(=O)N[C@@H](Cc2ccc(O)cc2)C(=O)N[C@H](C(=O)N[C@@H](Cc2ccccc2)C(=O)O)C(C)C)NC(=O)[C@H](Cc2c[nH]c4ccccc24)NC(=O)[C@H](CCCNC(=N)N)NC(=O)[C@H](Cc2c[nH]cn2)NC(=O)[C@H]([C@@H](C)O)NC(=O)[C@H](CCCNC(=N)N)NC(=O)[C@H](CO)NC3=O)NC(=O)[C@H](CCCCN)NC(=O)[C@H](CC(=O)O)NC(=O)[C@H](CCCNC(=N)N)NC(=O)[C@H](CC(=O)O)NC(=O)[C@@H]2CCCN2C1=O [compound 848] | 600 | 4500 | > 5000 | 
CC[C@H](C)[C@@H]1NC(=O)[C@@H]2CSSC[C@@H]3NC(=O)[C@H](C(C)C)NC(=O)[C@H](CC(C)C)NC(=O)[C@H](CC(N)=O)NC(=O)[C@@H]4CCCN4C(=O)[C@H](CCCNC(=N)N)NC(=O)[C@H](CSSC[C@H](NC(=O)[C@@H](N)CC(=O)O)C(=O)N[C@@H](CC(C)C)C(=O)NCC(=O)N[C@@H](Cc4ccccc4)C(=O)N[C@@H](CCSC)C(=O)N[C@@H](CCCNC(=N)N)C(=O)N[C@@H](CCCCN)C(=O)N2)NC(=O)[C@H](CSSC[C@@H](C(=O)N[C@@H](CCCCN)C(=O)N[C@@H](Cc2ccc(O)cc2)C(=O)N[C@@H](Cc2c[nH]c4ccccc24)C(=O)N[C@@H](Cc2ccccc2)C(N)=O)NC(=O)[C@H](Cc2c[nH]c4ccccc24)NC(=O)[C@H](CCCNC(=N)N)NC(=O)[C@H](Cc2c[nH]cn2)NC(=O)[C@H]([C@@H](C)O)NC(=O)[C@H](CCCNC(=N)N)NC(=O)[C@H](CO)NC3=O)NC(=O)[C@H](CCCCN)NC(=O)[C@H](CC(=O)O)NC(=O)[C@H](CC(N)=O)NC(=O)[C@H](CC(=O)O)NC(=O)[C@@H]2CCCN2C1=O [compound 444] (H-DCLGFMRKCIPDNDKCCRPNLVCSRTHRWCKYWF-NH2; disulfide 2-17, 9-23, 16-30) | 40 | 30 | > 5000 | 
CC[C@H](C)[C@@H]1NC(=O)[C@@H]2CSSC[C@@H]3NC(=O)[C@H](C(C)C)NC(=O)[C@H](CC(C)C)NC(=O)[C@H](CC(N)=O)NC(=O)[C@@H]4CCCN4C(=O)[C@H](CCCNC(=N)N)NC(=O)[C@H](CSSC[C@H](NC(=O)[C@@H](N)CC(=O)O)C(=O)N[C@@H](CC(C)C)C(=O)NCC(=O)N[C@@H](Cc4ccccc4)C(=O)N[C@@H](CCSC)C(=O)N[C@@H](CCCNC(=N)N)C(=O)N[C@@H](CCCCN)C(=O)N2)NC(=O)[C@H](CSSC[C@@H](C(=O)N[C@@H](CCCCN)C(=O)N(C)[C@@H](Cc2ccccc2)C(=O)N[C@H](C(=O)N[C@@H](Cc2ccccc2)C(N)=O)C(C)C)NC(=O)[C@H](Cc2c[nH]c4ccccc24)NC(=O)[C@H](CCCCN)NC(=O)[C@H](Cc2c[nH]cn2)NC(=O)[C@H]([C@@H](C)O)NC(=O)[C@H](CCCNC(=N)N)NC(=O)[C@H](CO)NC3=O)NC(=O)[C@H](CCCCN)NC(=O)[C@H](CC(=O)O)NC(=O)[C@H](CC(N)=O)NC(=O)[C@H](CC(=O)O)NC(=O)[C@@H]2CCCN2C1=O [compound 370] (H-DCLGFMRKCIPDNDKCCRPNLVCSRTHKWCK[NMeF]VF-NH2; disulfide 2-17, 9-23, 16-30) |  |  |  | IC50 (hNav1.3; Table 25, use, […]): > 5000 nM; IC50 (hNav1.7; Table 25, IonWorks Quattro, use, […], read-out: IWQ Use Nav1.7): > 5000 nM; IC50 (hNav1.5; Table 25, use, […]): > 5000 nM
C#CCCC(=O)N[C@@H](CC(=O)O)C(=O)N[C@H]1CSSC[C@@H]2NC(=O)[C@@H]3CSSC[C@@H](C(=O)N[C@@H](CCCCN)C(=O)N[C@@H](Cc4ccc(O)cc4)C(=O)N[C@H](C(=O)N[C@@H](Cc4ccccc4)C(N)=O)C(C)C)NC(=O)[C@H](Cc4c[nH]c5ccccc45)NC(=O)[C@H](CCCCN)NC(=O)[C@H](Cc4c[nH]cn4)NC(=O)[C@H]([C@@H](C)O)NC(=O)[C@H](CCCNC(=N)N)NC(=O)[C@H](CO)NC(=O)[C@H](CSSC[C@H](NC(=O)[C@H](CCCCN)NC(=O)[C@H](CCCNC(=N)N)NC(=O)[C@H](CC(C)C)NC(=O)[C@H](CCC)NC(=O)CNC(=O)[C@H](CC(C)C)NC1=O)C(=O)N[C@@H]([C@@H](C)CC)C(=O)N1CCC[C@H]1C(=O)N[C@@H](CC(=O)O)C(=O)N[C@@H](CC)C(=O)N[C@@H](CC(=O)O)C(=O)N[C@@H](CCCCN)C(=O)N3)NC(=O)[C@H](C(C)C)NC(=O)[C@H](CC(C)C)NC(=O)[C@H](CC(N)=O)NC(=O)[C@@H]1CCCN1C(=O)[C@H](CCCNC(=N)N)NC2=O [compound 760] (Pent4ynoyl-DCLG[Nva]LRKCIPD[Abu]DKCCRPNLVCSRTHKWCKYVF-NH2; disulfide 2-17, 9-23, 16-30) | 250 | 190 | 35200 | 
